Assay results: patent publication US20240174671A1, “New 2,3-Dihydro-1H-pyrrolo[3,2-b]pyridine Derivatives as Sigma Ligands” (ACONDICIONAMIENTO TARRASENSE, priority 2021, published 2024)
Counter-ions that a name gives are not always drawn. Like-named read-outs stand apart in the source and are kept apart here.

Columns and labels:
human σ1 receptor = biological target: T1, human σ1 receptor (Homo sapiens, UniProt Q99720); assay: Human σ1 receptor radioligand assay ([3H](+)-pentazocine); type: binding
T1 construct: expressed in transfected cells; host or cells: HEK-293
Outline: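 Binding used [3H](+)-pentazocine, 120 min at 37° C, with non-specific binding defined by 10 μM haloperidol. Bound radioligand was collected by filtration, washed with ice-cold 10 mM Tris-HCl pH 7.4 and counted by scintillation.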

human σ2/TMEM97 receptor = biological target: T2, human σ2/TMEM97 receptor (Homo sapiens, UniProt Q5BJF2); assay: Binding assay to human σ2/TMEM97 receptor ([3H]-DTG); settings: transfected HEK-293 membranes, 10 nM [3H]-DTG, 25° C., 120 minutes; read-out: Binding σ-[…] (binding to σ2-receptor expressed as Ki)
T2 construct: expressed in transfected cells; host or cells: HEK-293
Outline: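 Membranes from transfected HEK-293 cells incubated with 10 nM [3H]-DTG in 50 mM Tris-HCl pH 8.0, 120 min at 25 °C; non-specific binding defined with 10 μM haloperidol. Bound radioactivity counted after filtration; compounds tested as % inhibition at 1 or 10 μM or at five concentrations for Ki.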

[1] = transfected HEK-293 membranes, 5 nM [3H](+)-pentazocine, 37° C., 120 minutes, read-out: Binding σ-[…] (binding to σ1-receptor expressed as Ki)

T2 sequence (Q5BJF2 whole entry): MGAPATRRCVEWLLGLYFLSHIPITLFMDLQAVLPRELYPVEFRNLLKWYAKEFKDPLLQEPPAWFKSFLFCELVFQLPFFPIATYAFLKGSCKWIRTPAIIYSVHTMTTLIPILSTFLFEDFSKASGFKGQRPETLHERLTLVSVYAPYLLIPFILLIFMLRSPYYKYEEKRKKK
T1 sequence (Q99720 whole entry): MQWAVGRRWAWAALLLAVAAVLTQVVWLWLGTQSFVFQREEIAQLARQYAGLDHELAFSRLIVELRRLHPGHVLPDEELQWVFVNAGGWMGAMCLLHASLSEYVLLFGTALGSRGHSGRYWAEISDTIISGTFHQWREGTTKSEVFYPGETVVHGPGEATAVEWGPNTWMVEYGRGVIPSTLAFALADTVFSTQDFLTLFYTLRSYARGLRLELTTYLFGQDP

CN(Cc1cc(F)cc(C#N)c1)C1CCN(C(=O)N2CC(C)(C)c3ncccc32)CC1 [Example 76, 3-(((1-(3,3-dimethyl-2,3-dihydro-1H-pyrrolo[3,2-b]pyridine-1-carbonyl)piperidin-4-yl)(methyl)amino)methyl)-5-fluorobenzonitrile] was tested, and the Ki (human σ1 receptor; [1]) was greater than 1000 nM and the Ki (human σ2/TMEM97 receptor) was 500 to 1000 nM.

Cc1ccc2c(n1)C(C)(C)CN2C(=O)[C@H]1CC[C@H](N(C)Cc2ccnc(C(F)(F)F)c2)CC1 [Example 177, ((1r,4r)-4-(methyl((2-(trifluoromethyl)pyridin-4-yl)methyl)amino)cyclohexyl)(3,3,5-trimethyl-2,3-dihydro-1H-pyrrolo[3,2-b]pyridin-1-yl)methanone] showed a Ki (human σ1 receptor; [1]) of 100 to 500 nM and a Ki (human σ2/TMEM97 receptor) of less than 100 nM.

For Cc1ccc2c(n1)C(C)(C)CN2C(=O)N1CCC(N(C)Cc2ccccc2)CC1 [Example 11, (4-(benzyl(methyl)amino)piperidin-1-yl)(3,3,5-trimethyl-2,3-dihydro-1H-pyrrolo[3,2-b]pyridin-1-yl)methanone], the Ki (human σ1 receptor; [1]) was 100 to 500 nM and the Ki (human σ2/TMEM97 receptor) was less than 100 nM.

In the case of CC1(C)CN(C(=O)N2CCC3(CCN(Cc4cc(C#N)c(F)cc4F)CC3)CC2)c2cccnc21 [Example 167, 5-((9-(3,3-dimethyl-2,3-dihydro-1H-pyrrolo[3,2-b]pyridine-1-carbonyl)-3,9-diazaspiro[5.5]undecan-3-yl)methyl)-2,4-difluorobenzonitrile], the Ki (human σ1 receptor; [1]) is reported as less than 100 nM and the Ki (human σ2/TMEM97 receptor) is reported as less than 100 nM.

Work on Cc1ccc2c(n1)C(C)(C)CN2C(=O)[C@H]1CC[C@H](N(C)Cc2ccc(F)cc2F)CC1 [Example 172, ((1r,4r)-4-((2,4-difluorobenzyl)(methyl)amino)cyclohexyl)(3,3,5-trimethyl-2,3-dihydro-1H-pyrrolo[3,2-b]pyridin-1-yl)methanone] yielded a Ki (human σ1 receptor; [1]) of less than 100 nM and a Ki (human σ2/TMEM97 receptor) of less than 100 nM.

Work on Cc1ccc2c(n1)C(C)(C)CN2C(=O)NC1CCN(CC2CCOCC2)CC1 [Example 42, 3,3,5-trimethyl-N-(1-((tetrahydro-2H-pyran-4-yl)methyl)piperidin-4-yl)-2,3-dihydro-1H-pyrrolo[3,2-b]pyridine-1-carboxamide] yielded a Ki (human σ1 receptor; [1]) of 100 to 500 nM and a Ki (human σ2/TMEM97 receptor) greater than 1000 nM.

With Cc1ccc2c(n1)C(C)(C)CN2C(=O)[C@H]1CC[C@H](N(C)Cc2ccccc2F)CC1 [Example 183, ((1r,4r)-4-((2-fluorobenzyl)(methyl)amino)cyclohexyl)(3,3,5-trimethyl-2,3-dihydro-1H-pyrrolo[3,2-b]pyridin-1-yl)methanone] the Ki (human σ1 receptor) was less than 100 nM and the Ki (human σ2/TMEM97 receptor) was less than 100 nM.

Cc1ccc2c(n1)C(C)(C)CN2C(=O)[C@H]1CC[C@H](N(C)Cc2ccc(F)cc2)CC1 [Example 182, ((1r,4r)-4-((4-fluorobenzyl)(methyl)amino)cyclohexyl)(3,3,5-trimethyl-2,3-dihydro-1H-pyrrolo[3,2-b]pyridin-1-yl)methanone] gave a Ki (human σ1 receptor; [1]) of less than 100 nM and a Ki (human σ2/TMEM97 receptor) of less than 100 nM.

CC1(C)CN(C(=O)N2CCC3(CCN(Cc4ccc(F)cn4)CC3)C2)c2cccnc21 [Example 154, (3,3-dimethyl-2,3-dihydro-1H-pyrrolo[3,2-b]pyridin-1-yl)(8-((5-fluoropyridin-2-yl)methyl)-2,8-diazaspiro[4.5]decan-2-yl)methanone] was tested, and the Ki (human σ1 receptor; [1]) was 100 to 500 nM and the Ki (human σ2/TMEM97 receptor) was less than 100 nM.

In the case of Cc1ccc2c(n1)C(C)(C)CN2C(=O)N1CCC2(CCN(CCC3CCOCC3)CC2)C1 [Example 108, (8-(2-(tetrahydro-2H-pyran-4-yl)ethyl)-2,8-diazaspiro[4.5]decan-2-yl)(3,3,5-trimethyl-2,3-dihydro-1H-pyrrolo[3,2-t]pyridin-1-yl)methanone], the Ki (human σ1 receptor; [1]) is reported as greater than 1000 nM and the Ki (human σ2/TMEM97 receptor) is reported as less than 100 nM.

For Cc1ccc2c(n1)C(C)(C)CN2C(=O)N1CCC(N(C)CC(C)C)CC1 [Example 119, (4-(isobutyl(methyl)amino)piperidin-1-yl)(3,3,5-trimethyl-2,3-dihydro-1H-pyrrolo[3,2-b]pyridin-1-yl)methanone], the Ki (human σ1 receptor; [1]) was 100 to 500 nM and the Ki (human σ2/TMEM97 receptor) was 100 to 500 nM.

Cc1ccc2c(n1)C(C)(C)CN2C(=O)[C@H]1C[C@@H](N(C)Cc2ccccc2)C1 [Example 139, ((1s,3s)-3-(benzyl(methyl)amino)cyclobutyl)(3,3,5-trimethyl-2,3-dihydro-1H-pyrrolo[3,2-b]pyridin-1-yl)methanone] gave a Ki (human σ1 receptor; [1]) of 100 to 500 nM and a Ki (human σ2/TMEM97 receptor) of 100 to 500 nM.

For Cc1ccc2c(n1)C(C)(C)CN2C(=O)NCC1CN(Cc2ccccc2)C1 [Example 82, N-((1-benzylazetidin-3-yl)methyl)-3,3,5-trimethyl-2,3-dihydro-1H-pyrrolo[3,2-b]pyridine-1-carboxamide], the Ki (human σ1 receptor; [1]) was 100 to 500 nM and the Ki (human σ2/TMEM97 receptor) was less than 100 nM.

Cc1ccc2c(n1)C(C)(C)CN2C(=O)CC1CCN(Cc2ccccc2)CC1 [Example 130, 2-(1-benzylpiperidin-4-yl)-1-(3,3,5-trimethyl-2,3-dihydro-1H-pyrrolo[3,2-b]pyridin-1-yl)ethanone] showed a Ki (human σ1 receptor; [1]) of less than 100 nM and a Ki (human σ2/TMEM97 receptor) of 100 to 500 nM.

Work on CC1(C)CN(C(=O)N2CCC3(CCN(Cc4ccc(C(F)(F)F)nc4)CC3)C2)c2cccnc21 [Example 155, (3,3-dimethyl-2,3-dihydro-1H-pyrrolo[3,2-b]pyridin-1-yl)(8-((6-(trifluoromethyl)pyridin-3-yl)methyl)-2,8-diazaspiro[4.5]decan-2-yl)methanone] yielded a Ki (human σ1 receptor; [1]) greater than 1000 nM and a Ki (human σ2/TMEM97 receptor) of less than 100 nM.

CCOCCN1CCC(NC(=O)N2CC(C)(C)c3nc(C)ccc32)CC1 [Example 28, N-(1-(2-ethoxyethyl)piperidin-4-yl)-3,3,5-trimethyl-2,3-dihydro-1H-pyrrolo[3,2-b]pyridine-1-carboxamide] was tested, and the Ki (human σ1 receptor; [1]) was 100 to 500 nM and the Ki (human σ2/TMEM97 receptor) was greater than 1000 nM.

Compound O=C(N1CCC[C@H](NCCc2ccccc2)C1)N1CCc2ncccc21 [Example 101, (S)-(2,3-dihydro-1H-pyrrolo[3,2-b]pyridin-1-yl)(3-(phenethylamino)piperidin-1-yl)methanone] has a Ki (human σ1 receptor; [1]) greater than 1000 nM and a Ki (human σ2/TMEM97 receptor) of 100 to 500 nM.

Cc1ccc2c(n1)C(C)(C)CN2C(=O)NC1CCN(Cc2ccccc2)CC1 [Example 1, N-(1-benzylpiperidin-4-yl)-3,3,5-trimethyl-2,3-dihydro-1H-pyrrolo[3,2-b]pyridine-1-carboxamide] showed a Ki (human σ1 receptor; [1]) of less than 100 nM and a Ki (human σ2/TMEM97 receptor) greater than 1000 nM.

Work on CC1(C)CN(C(=O)N2CC3(CCN(Cc4ccccc4)CC3)C2)c2cccnc21 [Example 159, (7-benzyl-2,7-diazaspiro[3.5]nonan-2-yl)(3,3-dimethyl-2,3-dihydro-1H-pyrrolo[3,2-b]pyridin-1-yl)methanone] yielded a Ki (human σ1 receptor; [1]) of less than 100 nM and a Ki (human σ2/TMEM97 receptor) of 100 to 500 nM.

Work on CC1(C)CN(C(=O)N2CCC3(CCN(CC4CCOCC4)CC3)CC2)c2cccnc21 [Example 166, (3,3-dimethyl-2,3-dihydro-1H-pyrrolo[3,2-b]pyridin-1-yl)(9-((tetrahydro-2H-pyran-4-yl)methyl)-3,9-diazaspiro[5.5]undecan-3-yl)methanone] yielded a Ki (human σ1 receptor; [1]) of 100 to 500 nM and a Ki (human σ2/TMEM97 receptor) of less than 100 nM.

CC1(C)CN(C(=O)[C@H]2CC[C@H](NCc3ccccc3)CC2)c2cccnc21 [Example 128, ((1r,4r)-4-(benzylamino)cyclohexyl)(3,3-dimethyl-2,3-dihydro-1H-pyrrolo[3,2-b]pyridin-1-yl)methanone dihydrochloride] gave a Ki (human σ1 receptor; [1]) of less than 100 nM and a Ki (human σ2/TMEM97 receptor) of 100 to 500 nM.

Cc1ccc2c(n1)C(C)(C)CN2C(=O)NC1CCN(CCC(C)C)CC1 [Example 25, N-(1-isopentylpiperidin-4-yl)-3,3,5-trimethyl-2,3-dihydro-1H-pyrrolo[3,2-b]pyridine-1-carboxamide] showed a Ki (human σ1 receptor; [1]) of less than 100 nM and a Ki (human σ2/TMEM97 receptor) of 100 to 500 nM.

For Cc1ccc2c(n1)C(C)(C)CN2C(=O)N1CCC2(CCN(Cc3ccccc3F)CC2)CC1 [Example 160, (9-(2-fluorobenzyl)-3,9-diazaspiro[5.5]undecan-3-yl)(3,3,5-trimethyl-2,3-dihydro-1H-pyrrolo[3,2-b]pyridin-1-yl)methanone], the Ki (human σ1 receptor; [1]) was less than 100 nM and the Ki (human σ2/TMEM97 receptor) was less than 100 nM.

Compound Cc1ccc2c(n1)C(C)(C)CN2C(=O)N1CCC2(CCN(CC3CCOCC3)CC2)CC1 [Example 161, (9-((tetrahydro-2H-pyran-4-yl)methyl)-3,9-diazaspiro[5.5]undecan-3-yl)(3,3,5-trimethyl-2,3-dihydro-1H-pyrrolo[3,2-b]pyridin-1-yl)methanone] has a Ki (human σ1 receptor; [1]) of 100 to 500 nM and a Ki (human σ2/TMEM97 receptor) of less than 100 nM.

With CN(Cc1cc(F)ccc1F)[C@H]1CC[C@H](C(=O)N2CC(C)(C)c3ncccc32)CC1 [Example 176, ((1r,4r)-4-((2,5-difluorobenzyl)(methyl)amino)cyclohexyl)(3,3-dimethyl-2,3-dihydro-1H-pyrrolo[3,2-b]pyridin-1-yl)methanone] the Ki (human σ1 receptor; [1]) was less than 100 nM and the Ki (human σ2/TMEM97 receptor) was less than 100 nM.

In the case of Cc1ccc2c(n1)C(C)(C)CN2C(=O)N1CCC(N(C)Cc2ccc(N(C)C)cc2)CC1 [Example 68, (4-((4-(dimethylamino)benzyl)(methyl)amino)piperidin-1-yl)(3,3,5-trimethyl-2,3-dihydro-1H-pyrrolo[3,2-b]pyridin-1-yl)methanone], the Ki (human σ1 receptor; [1]) is reported as 100 to 500 nM and the Ki (human σ2/TMEM97 receptor) is reported as less than 100 nM.

For CN(Cc1ccccc1)[C@H]1CC[C@H](NC(=O)N2CC(C)(C)c3ncccc32)CC1 [Example 71, N-((1r,4r)-4-(benzyl(methyl)amino)cyclohexyl)-3,3-dimethyl-2,3-dihydro-1H-pyrrolo[3,2-b]pyridine-1-carboxamide], the Ki (human σ1 receptor; [1]) was greater than 1000 nM and the Ki (human σ2/TMEM97 receptor) was less than 100 nM.

CC1(C)CN(C(=O)NC2CCN(Cc3ccc(F)cc3)CC2)c2cccnc21 [Example 48, N-(1-(4-fluorobenzyl)piperidin-4-yl)-3,3-dimethyl-2,3-dihydro-1H-pyrrolo[3,2-b]pyridine-1-carboxamide] was tested, and the Ki (human σ1 receptor; [1]) was less than 100 nM and the Ki (human σ2/TMEM97 receptor) was greater than 1000 nM.

Compound Cc1ccc2c(n1)C(C)(C)CN2C(=O)[C@H]1CC[C@H](NCc2ccccc2F)CC1 [Example 188, ((1r,4r)-4-((2-fluorobenzyl)amino)cyclohexyl)(3,3,5-trimethyl-2,3-dihydro-1H-pyrrolo[3,2-b]pyridin-1-yl)methanone] has a Ki (human σ1 receptor; [1]) of less than 100 nM and a Ki (human σ2/TMEM97 receptor) of less than 100 nM.
